Laboratory results reported in the supplement of paper PMC10627819.
In brackets after ≈: the same amount, converted by molar mass.

What was measured:
[1] = system: S. aureus DSM 20231
[2] = system: S. aureus Newman
[3] = system: S. pneumoniae D39V
[4] = system: B. subtilis 168; assay: fitness (endpoint OD595 vs no drug) (fraction); higher = more growth
Summary of the method: (§1)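 Fitness was defined as the optical density at the transition into stationary phase relative to the robust mean of no-drug control wells. Values were capped at 1. Cultures were started at OD595 0.01 in 384-well plates (30 µl, or 55 µl for S. pneumoniae) in TSB, LB Lennox or CY at 37 °C. OD595 was recorded every 30 min over 14 h, with the first reading subtracted as background.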

[5] = system: B. subtilis 168
[6] = system: S. pneumoniae D39V; assay: fitness (endpoint OD595 vs no drug) (fraction); higher = more growth
Summary of the method: as §1

[7] = system: S. aureus DSM 20231; assay: as above
Summary of the method: as §1

[8] = system: S. aureus Newman; assay: as above
Summary of the method: as §1

[9] = system: B. subtilis 168; assay: Bliss interaction score (quartile over a dose matrix) (fitness difference); higher = more antagonism (negative = synergy)
Summary of the method: (§2)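 Quartiles summarise the Bliss score over technical, biological and donor/recipient replicates, where the score is observed minus expected fitness under a product model. Expected fitness uses single-drug values inferred from combination data. Fitness is OD595 at entry into stationary phase over the plate's robust no-drug mean, capped at 1.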

[10] = system: S. aureus DSM 20231; assay: as above
Summary of the method: as §2

[11] = system: S. aureus Newman; assay: as above
Summary of the method: as §2

[12] = system: S. pneumoniae D39V; assay: as above
Summary of the method: as §2
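For Bliss interaction score (quartile over a dose matrix) in this document: first quartile when negative (synergy) and third quartile when positive (antagonism).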

CO[C@@H]1[C@@H](OC(N)=O)[C@@H](O)[C@H](Oc2ccc3c(O)c(NC(=O)c4ccc(O)c(CC=C(C)C)c4)c(=O)oc3c2C)OC1(C)C [Novobiocin]
Conditions	MIC [µg/mL]
[1]	0.05 (≈ 0.0816 µM)
[2]	0.05 (≈ 0.0816 µM)
[3]	2.5 (≈ 4.08 µM)

[4]
Conditions	fitness
0.0125 µg/mL	0.921
0.025 µg/mL	0.956
0.05 µg/mL	0.986
0.1 µg/mL	0.993
0.2 µg/mL	≥ 1

CN[C@H](CC(C)C)C(=O)N[C@H]1C(=O)N[C@@H](CC(N)=O)C(=O)N[C@H]2C(=O)N[C@H]3C(=O)N[C@H](C(=O)N[C@H](C(=O)O)c4cc(O)cc(O)c4-c4cc3ccc4O)[C@H](O[C@H]3C[C@](C)(N)[C@@H](O)[C@H](C)O3)c3ccc(c(Cl)c3)Oc3cc2cc(c3O[C@@H]2O[C@H](CO)[C@@H](O)[C@H](O)[C@H]2O[C@H]2C[C@](C)(NCc3ccc(-c4ccc(Cl)cc4)cc3)[C@@H](O)[C@H](C)O2)Oc2ccc(cc2Cl)[C@H]1O [Oritavancin]
Conditions	MIC [µg/mL]
[1]	4.5 (≈ 2.51 µM)
[2]	4.5 (≈ 2.51 µM)

CO[C@H]1/C=C/O[C@@]2(C)Oc3c(C)c(O)c4c(O)c(c(/C=N/N5CCN(C)CC5)c(O)c4c3C2=O)NC(=O)/C(C)=C\C=C\[C@H](C)[C@H](O)[C@@H](C)[C@@H](O)[C@@H](C)[C@H](OC(C)=O)[C@@H]1C [Rifampicin]
Conditions	MIC [µg/mL]
[1]	0.018 (≈ 0.0219 µM)
[2]	0.035 (≈ 0.0425 µM)
[3]	0.4 (≈ 0.486 µM)
[5]	0.125 (≈ 0.152 µM)

[6]
Conditions	fitness
0.025 µg/mL	0.961
0.05 µg/mL	0.904
0.1 µg/mL	0.322
0.2 µg/mL	0.144

CN[C@@H]1[C@H](O)[C@H](NC)[C@H]2O[C@@]3(O)C(=O)C[C@@H](C)O[C@H]3O[C@@H]2[C@H]1O [Spectinomycin]
Conditions	MIC [µg/mL]
[1]	16 (≈ 48.1 µM)
[2]	16 (≈ 48.1 µM)
[3]	64 (≈ 193 µM)
[5]	8 (≈ 24.1 µM)

fitness
Conditions	[4]	[6]	[7]	[8]
2 µg/mL	0.992	–	–	–
4 µg/mL	0.964	0.956	0.966	0.963
8 µg/mL	0.941	0.865	0.961	0.93
16 µg/mL	–	0.702	0.851	0.893

CN[C@@H]1[C@H](O)[C@H](NC)[C@H]2O[C@@]3(O)C(=O)C[C@@H](C)O[C@H]3O[C@@H]2[C@H]1O [Spectinomycin] + CC1=C\[C@@H](O)CC(=O)Cc2nc(co2)C(=O)N2CCC=C2C(=O)O[C@H](C(C)C)[C@H](C)/C=C/C(=O)NC\C=C\1 [Virginiamycin M1]
fitness
Conditions	first compound 2 µg/mL	first compound 4 µg/mL	first compound 8 µg/mL	first compound 16 µg/mL
[4], partner 0.0625 µg/mL	0.916	0.979	0.915	–
[4], partner 0.125 µg/mL	0.982	0.941	0.947	–
[4], partner 0.25 µg/mL	≥ 1	0.972	0.875	–
[6], partner 0.5 µg/mL	–	0.972	0.93	–
[6], partner 1 µg/mL	–	0.96	0.916	–
[6], partner 2 µg/mL	–	0.931	0.889	0.8
[7], partner 0.0625 µg/mL	–	0.933	0.993	0.809
[7], partner 0.125 µg/mL	–	≥ 1	0.896	0.83
[7], partner 0.25 µg/mL	–	0.961	0.873	0.791
[8], partner 0.0625 µg/mL	–	0.936	0.997	0.934
[8], partner 0.125 µg/mL	–	0.944	≥ 1	0.961
[8], partner 0.25 µg/mL	–	0.942	≥ 1	0.937

fitness, one replicate
Conditions	[6]	[7]	[8]
first compound 4 µg/mL, partner 0.15 µg/mL	≥ 1	–	–
first compound 4 µg/mL, partner 0.3 µg/mL	0.939	–	–
first compound 4 µg/mL, partner 0.5 µg/mL	–	0.769	0.839
first compound 4 µg/mL, partner 1 µg/mL	–	0.735	0.882
first compound 4 µg/mL, partner 2 µg/mL	–	–	0.769
first compound 8 µg/mL, partner 0.15 µg/mL	0.944	–	–
first compound 8 µg/mL, partner 0.3 µg/mL	0.927	–	–
first compound 8 µg/mL, partner 0.5 µg/mL	–	0.735	0.817
first compound 8 µg/mL, partner 1 µg/mL	–	0.691	0.887
first compound 8 µg/mL, partner 2 µg/mL	–	–	0.787
first compound 16 µg/mL, partner 0.15 µg/mL	0.894	–	–
first compound 16 µg/mL, partner 0.3 µg/mL	0.93	–	–
first compound 16 µg/mL, partner 0.5 µg/mL	0.857	0.65	0.876
first compound 16 µg/mL, partner 1 µg/mL	0.731	0.704	0.777
first compound 16 µg/mL, partner 2 µg/mL	–	–	0.686
first compound 32 µg/mL, partner 0.0625 µg/mL	–	0.643	0.654
first compound 32 µg/mL, partner 0.125 µg/mL	–	0.736	0.629
first compound 32 µg/mL, partner 0.25 µg/mL	–	0.637	0.602
first compound 64 µg/mL, partner 0.0625 µg/mL	–	0.0659	0.0794
first compound 64 µg/mL, partner 0.125 µg/mL	–	0.0603	0.124
first compound 64 µg/mL, partner 0.25 µg/mL	–	0.0858	0.124

Conditions	Bliss interaction score
[9]	0.042
[10]	-0.0719
[11]	0.0692
[12]	0.052
